Results taken from ChEMBL document CHEMBL5120920, “A Mitochondria-Targeted Phenylbutyric Acid Prodrug Confers Drastically Improved Anticancer Activities” (J Med Chem, 2022).
Calls of active or inactive are those of the source. The rule behind the calls is not given here.

Experiments:
[1] = tested on: A-375; test: Cytotoxicity against human A-375 cells assessed as reduction in cell vaibility measured at 48 hrs in presence of BNPP by MTT assay; format: functional, cell-based; settings: A-375, 48 h
[2] = Toxicity in BALB/c mouse assessed as change in body weight at 40 mg/kg, iv measured once every two days for 7 days; format: organism-based; settings: in vivo, 168 h, time 7 day
[3] = tested on: A-375; test: Antitumor activity against human A-375 cells implanted in BALB/c mouse assessed as tumor growth inhibition at 40 mg/kg, ip measured once every two days for 14 days; format: functional, organism-based; settings: time 14.0 day
[4] = Stability of the compound assessed as Carboxylesterase (unknown origin) mediated compound hydrolysis measured upto 150 mins by RP-HPLC-UV analysis; format: ADME; settings: human, 2.5 h
[5] = tested on: A-375; test: Inhibition of glycolysis in human A-375 cells assessed as reduction in lactate formation at 0.25 to 5 uM incubated for 8 hrs; format: functional, cell-based; settings: dose 0.25-5 µM
[6] = Toxicity in BALB/c mouse at 200 mg/kg, iv administered for 7 days; format: organism-based; settings: in vivo, 168 h, time 7 day
[7] = tested on: A-375; test: Cytotoxicity against human A-375 cells assessed as reduction in cell vaibility measured at 24 hrs in absence of BNPP by MTT assay; format: functional, cell-based; settings: A-375, 24 h
[8] = tested on: A-375; test: Induction of apoptosis in human A-375 cells assessed as apoptotic cells at 10 uM measured after 48 hrs by Annexin V FITC/PI staining based flow cytometry analysis relative to control; format: functional
[9] = Toxicity in BALB/c mouse assessed as histopathological changes in spleen at 50 to 100 mg/kg, iv measured after 7 days by H and E staining based assay; format: organism-based; settings: in vivo, 168 h, dose 50-100 mg/kg, time 7 day
[10] = tested on: A-375; test: Induction of cell cycle arrest in human A-375 cells assessed as accumulation at S phase at 7.5 uM incubated for 24 hrs by PI staining based flow cytometry analysis (reference value: 24.01 %); format: functional
[11] = Stability of the compound in Tris-HCL buffer at pH 7.4 measured for 24 hrs by RP-HPLC-UV analysis; format: physicochemical; settings: pH 7.4, 24 h
[12] = tested on: A-375; test: Induction of mitochondrial membrane depolarization in human A-375 cells assessed as increase in JC-1 monomer incubated for 4 hrs by JC-1 staining based flow cytometry analysis; format: functional, cell-based; settings: dose 2.5-10 µM, DDE = dose-dependent effect
[13] = tested on: HaCaT; test: Induction of mitochondrial membrane hyperpolarization in human HaCaT cells assessed as JC-1 level at 2.5 to 10 uM incubated for 4 hrs by JC-1 staining based flow cytometry analysis relative to control; format: functional; settings: dose 2.5-10 µM
[14] = tested on: A-375; test: Antitumor activity against human A-375 cells xenografted in nude mouse assessed as decrease in bcl-2 expression at 40 mg/kg, ip measured once every two days for 14 days by immunohistochemistry assay; format: functional, organism-based; settings: time 14.0 day
[15] = Toxicity in nude mouse xenografted with human A-375 cells assessed as body weight loss at 10 to 40 mg/kg, ip measured once every two days for 14 days; format: organism-based; settings: in vivo, 336 h, dose 10-40 mg/kg, time 14 day
[16] = Metabolic stability in Sprague-Dawley rat plasma assessed as elimination half life by LC-MS/MS analysis; format: ADME, cell-free; settings: read-out: beta t1/2
[17] = tested on: A-375; test: Antitumor activity against human A-375 cells implanted in BALB/c mouse assessed as shrinkage of tumor tissue at 40 mg/kg, ip measured once every two days for 14 days; format: functional, organism-based; settings: time 14.0 day
[18] = tested on: MCF7; test: Antiproliferative activity against human MCF7 cells assessed as inhibition of cell viability incubated for 72 hrs by MTT assay; format: functional, cell-based; settings: MCF7, 72 h
[19] = tested on: A-375; test: Induction of cell cycle arrest in human A-375 cells assessed as accumulation at G1 phase at 2.5 uM incubated for 24 hrs by PI staining based flow cytometry analysis (reference value: 68.07 %); format: functional
[20] = Efflux ratio of apparent permeability from basolateral to apical side over apical to basolateral side in human Caco2 cells by LC-MS/MS analysis; format: ADME, cell-based; settings: Caco-2
[21] = tested on: A549; test: Induction of mitochondrial membrane hyperpolarization in human A549 cells assessed as JC-1 level at 2.5 to 10 uM incubated for 4 hrs by JC-1 staining based flow cytometry analysis relative to control; format: functional; settings: dose 2.5-10 µM
[22] = tested on: A-375; test: Induction of mitochondrial damage in human A-375 cells assessed as decrease in oxygen consumption rate at 5 uM measured after 4 hrs; format: functional, cell-based
[23] = tested on: A-375; test: Antitumor activity against human A-375 cells xenografted in nude mouse assessed as reduction in tumor weight at 10 to 40 mg/kg, ip measured once every two days for 14 days; format: functional, organism-based; settings: dose 10-40 mg/kg, time 14.0 day
[24] = Toxicity in BALB/c mouse assessed as histopathological changes in liver at 50 to 100 mg/kg, iv measured after 7 days by H and E staining based assay; format: organism-based; settings: in vivo, 168 h, dose 50-100 mg/kg, time 7 day
[25] = tested on: A-375; test: Induction of cell cycle arrest in human A-375 cells assessed as accumulation at S phase at 2.5 uM incubated for 24 hrs by PI staining based flow cytometry analysis (reference value: 24.01 %); format: functional
[26] = molecular target: Pyruvate dehydrogenase kinase (Homo sapiens) (UniProt Q15119+Q15120+Q16654+Q15118); test: Inhibition of PDK in human A-375 cells assessed as reduction in PDH phosphorylation at ser293 residue at 5 to 20 uM after 24 to 48 hrs; format: cell-based; settings: dose 5-20 µM, time 24-48 hrs
[27] = tested on: A-375; test: Cytotoxicity against human A-375 cells assessed as reduction in cell vaibility measured at 24 hrs in presence of BNPP by MTT assay; format: functional, cell-based; settings: A-375, 24 h
[28] = tested on: A-375; test: Inhibition of colony formation in human A-375 cells preincubated for 72 hrs followed by drug free medium addition for 10 to 14 days by crystal violet staining based analysis; format: functional, cell-based; settings: dose 0.5-1 µM, DDE = dose-dependent effect
[29] = Toxicity in BALB/c mouse assessed as change in body weight at 100 mg/kg, iv administered for 7 days and measured once per 2 days; format: organism-based; settings: in vivo, 168 h, time 7 day
[30] = tested on: A-375; test: Induction of cell cycle arrest in human A-375 cells assessed as accumulation at S phase at 5 uM incubated for 24 hrs by PI staining based flow cytometry analysis (reference value: 24.01 %); format: functional
[31] = tested on: A-375; test: Antitumor activity against human A-375 cells xenografted in nude mouse assessed as shrinkage of tumor tissue at 10 to 40 mg/kg, ip measured once every two days for 14 days; format: functional, organism-based; settings: dose 10-40 mg/kg, time 14.0 day
[32] = molecular target: T1, Histone deacetylase (Homo sapiens) (UniProt Q13547+O15379+Q9UBN7+Q92769+Q9UQL6+Q8WUI4+Q9BY41+Q96DB2+P56524+Q9UKV0+Q969S8); test: Inhibition of HDAC in human A-375 cells assessed as upregulation of alpha-tubulin acetylation at 5 to 20 uM measured after 24 hrs; format: cell-based; settings: dose 5-20 µM
[33] = molecular target: T1, Histone deacetylase (Homo sapiens); test: Inhibition of HDAC in human A-375 cells assessed as upregulation of histone-H3 acetylation at 5 to 20 uM measured after 24 hrs; format: cell-based; settings: dose 5-20 µM
[34] = tested on: A-375; test: Antitumor activity against human A-375 cells xenografted in nude mouse assessed as tumor inhibition ratio at 40 mg/kg, ip measured once every two days for 14 days; format: functional; settings: A-375, 336 h, time 14 day, read-out: TGI

For `O=C(CCCCCCCCC[P+](c1ccc(C(F)(F)F)cc1)(c1ccc(C(F)(F)F)cc1)c1ccc(C(F)(F)F)cc1)NC(COC(=O)CCCc1ccccc1)(COC(=O)CCCc1ccccc1)COC(=O)CCCc1ccccc1.[Br-]`, the IC50 [1] was 18.9 µM, the Activity [2] was “Non-Toxic” and the Activity [3] was “Active”. The Stability [4] was “Unstable”, the inhibition [5] was “Active” and the Activity [6] was “Non-Toxic”. For the same compound, the IC50 [7] was 6.06 µM, the Activity [8] was 50% and the Activity [9] was “Non-Toxic”. For the same compound, the Activity [10] was 11.75%, the Stability [11] was “Stable” and the Activity [12] was “Dde”. The Activity [13] was 12.67%, the Activity [14] was “Active” and the Activity [15] was “Non-Toxic”. For the same compound, the half-life [16] was 4.28 h, the Activity [17] was “Active” and the IC50 [18] was 6.02 µM. For the same compound, the Activity [19] was 74.71%, the efflux ratio [20] was 0.69 and the Activity [21] was 5.01%. For the same compound, the Activity [22] was “Active”, the Activity [23] was “Active” and the Activity [24] was “Non-Toxic”. For the same compound, the Activity [25] was 16.71%, the inhibition [26] was “Active” and the IC50 [27] was 28.4 µM. The inhibition [28] was “Dde”, the Activity [29] was “Non-Toxic” and the Activity [30] was 15.46%. For the same compound, the Activity [31] was “Active”, the inhibition [32] was “Active” and the inhibition [33] was “Active”. For the same compound, the inhibition in vivo at 40 mg/kg [34] was 76%.
